Laboratory results from patent US4112228A, “7-(D-α-Hydroxy-2-arylacetamido)-3-(2-carboxyalkyl-2,3-dihydro-s-tri azolo-[4,3-b]pyridazin-3-on-6-ylthiomethyl)-3-cephem-4-carboxylic acids and derivatives” (priority 1977, dated 1978).
≈ marks a conversion by molar mass, not a printed value.

Tests used:
S. aureus = test: MIC by Steers' agar dilution method; assay type: cell-based; details: Staphylococcus aureus
Shig. dysenteriae = test: MIC by Steers' agar dilution method; details: Shigella dysenteriae, MHA
B. anthracis = test: microbe, parasite or virus in culture; assay type: cell-based; details: Bacillus anthracis
S. aureus Smith = test: Standard experimental infection in mice; assay type: in vivo; details: Table 6
Pr. mirabilis = test: MIC by Steers' agar dilution method; details: Proteus mirabilis
[1] = test system: E. cloacae A20464 (El-19); test: Standard experimental infection in mice; assay type: in vivo; details: Run C-811

O=C(O)Cn1nc2ccc(SCC3=C(C(=O)O)N4C(=O)C(NC(=O)[C@H](O)c5ccccc5)[C@H]4SC3)nn2c1=O (stereo partly drawn) [BB-S488, 7-(D-Mandelamido)-3-(2-carboxymethyl-2,3-dihydro-s-triazolo[4,3-b]pyridazin-3-on-6-ylthiomethyl)-3-cephem-4-carboxylic Acid]
MIC (S. aureus; Sa-11 BX-1633 A9606 (β-lactamase), NA, Table 4): 3.1 µg/mL (≈ 5.41 µM) | MIC (S. aureus; Sa-11 BX-1633 A9606, MHA, Table 2): 0.4 µg/mL (≈ 0.699 µM) | MIC (S. aureus; Sa-12 A9497, MHA, Table 2): 0.2 µg/mL (≈ 0.349 µM) | MIC (S. aureus; Sa-29 No. 193, MHA, Table 2): 1.6 µg/mL (≈ 2.79 µM) | MIC (S. aureus; Sa-33 Terajima, MHA, Table 2): 0.0125 µg/mL (≈ 0.0218 µM) | MIC (S. aureus; Sa-34 A15092, MHA, Table 2): 0.8 µg/mL (≈ 1.4 µM) | MIC (S. aureus; Sa-35 A15094, MHA, Table 2): 0.8 µg/mL (≈ 1.4 µM) | MIC (S. aureus; Sa-36 Russell, MHA, Table 2): 0.8 µg/mL (≈ 1.4 µM) | MIC (S. aureus; Sa-37 A9524, MHA, Table 2): 1.6 µg/mL (≈ 2.79 µM) | MIC (S. aureus; Sa-38 A9534, MHA, Table 2): 0.4 µg/mL (≈ 0.699 µM) | MIC (S. aureus; Sa-39 A9578, MHA, Table 2): 0.8 µg/mL (≈ 1.4 µM) | MIC (S. aureus; Sa-40 A9601, MHA, Table 2): 0.8 µg/mL (≈ 1.4 µM) | MIC (S. aureus; Sa-41 A9602, MHA, Table 2): 0.8 µg/mL (≈ 1.4 µM) | MIC (S. aureus; Sa-44 A15097, HIA, Table 4): > 100 µg/mL | MIC (S. aureus; Sa-44 A15097, MHA, Table 2): 25 µg/mL (≈ 43.7 µM) | MIC (S. aureus; Sa-44 A15097, MHA, Table 4): 100 µg/mL (≈ 175 µM) | MIC (S. aureus; Sa-44 A15097, NA, Table 4): > 100 µg/mL | MIC (S. aureus; Sa-56 A9630, MHA, Table 2): 3.1 µg/mL (≈ 5.41 µM) | MIC (S. aureus; Sa-57 A9748, MHA, Table 2): 25 µg/mL (≈ 43.7 µM) | MIC (S. aureus; Sa-58 A15033, MHA, Table 2): 12.5 µg/mL (≈ 21.8 µM) | MIC (S. aureus; Sa-59 A15096, MHA, Table 2): 100 µg/mL (≈ 175 µM) | MIC (S. aureus; Sa-60 A20604, MHA, Table 2): 50 µg/mL (≈ 87.3 µM) | MIC (S. aureus; Sa-61 A20605, MHA, Table 2): 100 µg/mL (≈ 175 µM) | MIC (S. aureus; Sa-62 A20606, MHA, Table 2): 3.1 µg/mL (≈ 5.41 µM) | MIC (S. aureus; Sa-63 A20607, MHA, Table 2): > 100 µg/mL | MIC (S. aureus; Sa-64 A20608, MHA, Table 2): 100 µg/mL (≈ 175 µM) | MIC (S. aureus; Sa-65 A20609, MHA, Table 2): 100 µg/mL (≈ 175 µM) | MIC (S. aureus; Sa-66 A20610, MHA, Table 2): 100 µg/mL (≈ 175 µM) | MIC (S. aureus; Sa-67 A20611, MHA, Table 2): 100 µg/mL (≈ 175 µM) | MIC (S. aureus; Sa-68 A20612, MHA, Table 2): 1.6 µg/mL (≈ 2.79 µM) | MIC (S. aureus; Sa-69 A20613, MHA, Table 2): 100 µg/mL (≈ 175 µM) | MIC (S. aureus; Smith A9537, MHA, Table 1): 0.2 µg/mL (≈ 0.349 µM) | MIC (S. aureus; Smith, MHA, Example 10): 0.8 µg/mL (≈ 1.4 µM) | MIC (S. aureus; strain not named, MHA, Example 10): 0.4 µg/mL (≈ 0.699 µM) | MIC (Shig. dysenteriae; Example 10): 0.025 µg/mL (≈ 0.0437 µM) | MIC (Shig. dysenteriae; Table 1): 0.025 µg/mL (≈ 0.0437 µM) | MIC (Shig. dysenteriae; Sd-1, Table 3): 0.1 µg/mL (≈ 0.175 µM) | MIC (B. anthracis; Ba-3 A9504, HIA, Table 4): 0.2 µg/mL (≈ 0.349 µM) | MIC (B. anthracis; Ba-3 A9504, MHA, Table 4): 0.2 µg/mL (≈ 0.349 µM) | MIC (B. anthracis; Ba-3 A9504, NA, Table 4): 0.4 µg/mL (≈ 0.699 µM) | MIC (B. anthracis; MHA, Example 10): 0.2 µg/mL (≈ 0.349 µM) | No. of survivors/No. tested (S. aureus Smith; 0.1 mg./kg.): 2/5 | No. of survivors/No. tested (S. aureus Smith; 0.4 mg./kg.): 5/5 | No. of survivors/No. tested (S. aureus Smith; 1.6 mg./kg.): 5/5 | No. of survivors/No. tested (S. aureus Smith; 6.3 mg./kg.): 5/5 | No. of survivors/No. tested (S. aureus Smith; 25 mg./kg.): 5/5 | ED50 (S. aureus Smith; Staphylococcus aureus, read-out: PD50): 0.12 mg/kg | MIC (Pr. mirabilis; A9554, MHA, Table 1): 0.05 µg/mL (≈ 0.0873 µM) | MIC (Pr. mirabilis; A9900, MHA, Table 1): 0.1 µg/mL (≈ 0.175 µM) | MIC (Pr. mirabilis; Pm-1 A9554, HIA, Table 4): 0.1 µg/mL (≈ 0.175 µM) | MIC (Pr. mirabilis; Pm-1 A9554, MHA, Table 3): 0.1 µg/mL (≈ 0.175 µM) | MIC (Pr. mirabilis; Pm-1 A9554, MHA, Table 4): 0.1 µg/mL (≈ 0.175 µM) | MIC (Pr. mirabilis; Pm-1 A9554, NA, Table 4): 0.1 µg/mL (≈ 0.175 µM) | MIC (Pr. mirabilis; Pm-2 A9900, HIA, Table 4): 0.2 µg/mL (≈ 0.349 µM) | MIC (Pr. mirabilis; Pm-2 A9900, MHA, Table 3): 0.2 µg/mL (≈ 0.349 µM) | MIC (Pr. mirabilis; Pm-2 A9900, MHA, Table 4): 0.2 µg/mL (≈ 0.349 µM) | MIC (Pr. mirabilis; Pm-2 A9900, NA, Table 4): 0.1 µg/mL (≈ 0.175 µM) | MIC (Pr. mirabilis; Pm-3 A20119, MHA, Table 3): 0.4 µg/mL (≈ 0.699 µM) | MIC (Pr. mirabilis; Pm-4 A20454, MHA, Table 3): 0.2 µg/mL (≈ 0.349 µM) | MIC (Pr. mirabilis; Pm-5 A9702, MHA, Table 3): 0.1 µg/mL (≈ 0.175 µM) | MIC (Pr. mirabilis; Pm-6 A21222, MHA, Table 3): 1.6 µg/mL (≈ 2.79 µM) | MIC (Pr. mirabilis; strain not given (1st of 2), MHA, Example 10): 0.05 µg/mL (≈ 0.0873 µM) | MIC (Pr. mirabilis; strain not named (2nd of 2), MHA, Example 10): 0.05 µg/mL (≈ 0.0873 µM) | ED50 ([1]; Enterobacter cloacae, read-out: PD50): 0.54 mg/kg | No. of survivors/No. tested ([1]; 0.4 mg./kg.): 2/5 | No. of survivors/No. tested ([1]; 1.6 mg./kg.): 4/5 | No. of survivors/No. tested ([1]; 6.3 mg./kg.): 5/5 | No. of survivors/No. tested ([1]; 25 mg./kg.): 5/5 | No. of survivors/No. tested ([1]; 100 mg./kg.): 5/5
